For one assay, the target named is T1, recombinant human TYRO3 (Homo sapiens, UniProt Q06418).
T1 construct: purchased Invitrogen
T1 sequence (Q06418 41-890): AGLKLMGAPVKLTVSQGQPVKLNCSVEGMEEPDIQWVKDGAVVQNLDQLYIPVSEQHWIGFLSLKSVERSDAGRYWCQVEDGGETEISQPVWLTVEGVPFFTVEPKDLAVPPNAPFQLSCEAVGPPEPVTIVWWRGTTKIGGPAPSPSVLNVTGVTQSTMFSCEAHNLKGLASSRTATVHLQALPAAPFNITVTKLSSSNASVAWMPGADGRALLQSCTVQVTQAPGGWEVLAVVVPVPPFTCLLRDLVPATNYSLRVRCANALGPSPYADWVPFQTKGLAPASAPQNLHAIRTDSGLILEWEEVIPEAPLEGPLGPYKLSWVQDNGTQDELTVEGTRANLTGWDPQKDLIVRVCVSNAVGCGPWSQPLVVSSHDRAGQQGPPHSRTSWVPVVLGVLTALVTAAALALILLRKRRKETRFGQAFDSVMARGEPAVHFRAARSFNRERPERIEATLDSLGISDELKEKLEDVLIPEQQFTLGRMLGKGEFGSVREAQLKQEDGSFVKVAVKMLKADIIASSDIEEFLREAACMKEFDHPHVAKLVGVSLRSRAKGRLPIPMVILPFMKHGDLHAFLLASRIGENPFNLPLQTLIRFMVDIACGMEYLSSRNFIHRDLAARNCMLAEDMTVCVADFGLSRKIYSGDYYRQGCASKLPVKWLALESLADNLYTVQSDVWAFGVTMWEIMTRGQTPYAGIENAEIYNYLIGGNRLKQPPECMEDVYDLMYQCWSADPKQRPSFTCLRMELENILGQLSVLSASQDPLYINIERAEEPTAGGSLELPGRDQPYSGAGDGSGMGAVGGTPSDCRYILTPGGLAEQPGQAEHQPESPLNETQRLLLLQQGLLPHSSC
As to the kind of experiment: HTRF KinEASE-TK biochemical potency, TYRO3. The following applies: 1 nM TYRO3, 700 μM ATP. On the procedure: (§1) Purified recombinant human AXL, TYRO3 and MER proteins were purchased from Invitrogen™. 10 nM AXL, 2 nM TYRO3 or MER were incubated with varying concentrations of compounds in 50 mM HEPES, pH 7.4, 10 mM MgCl2, 0.01% BSA, 1 mM DTT and 2% DMSO in a total volume of 20 μl in a 384-well microplate (Corning™ #3640) at RT for 1 h. The AXL, TYRO3 and MER enzymatic reaction was initiated by transferring 10 μl of enzyme and compound mixture into 10 μl of 1.6 μM TK Substrate-biotin (HTRF® KinEASE-TK kit, Cisbio) and 1400 μM ATP pre-incubated in 50 mM HEPES, pH 7.4, 10 mM MgCl2, 0.01% BSA, 1 mM DTT in a 384-well microplate (Corning™ #3640) at RT, giving the final reaction conditions: 5 nM AXL, 1 nM TYRO3 or MER, 800 nM TK Substrate-biotin and 700 μM ATP in 50 mM HEPES, pH 7.4, 10 mM MgCl2, 0.01% BSA, 1 mM DTT and 1% DMSO with varying concentrations of compounds. Following 2 h incubation at RT, the AXL, TYRO3 and MER enzymatic reaction was stopped by transfer of 10 μl of reaction into 10 μl of detection mix (400 nM Streptavidin-XL665, 200-fold dilution TK Antibody-Cryptate and detection buffer, HTRF® KinEASE-TK kit, Cisbio) in a white 384-well microplate (Perkin Elmer, OptiPlate 384). After 1 h incubation at RT, the plate was put into a plate reader (Evision) to read at 665/620 nm (acceptor/donor) for HTRF. The value of the DMSO blank (MIN inhibition=100% activity) was used as a negative control. The positive control was established by adding 5 μl of enzyme and DMSO mixture into 10 μl of detection mix followed by addition of 5 μl of TK Substrate-biotin and ATP mixture (MAX inhibition=0% activity). To calculate the percent activity, Equation 1 was used. Ratio665/620 is the value at a given compound concentration: […]

The target of another assay is T2, recombinant human MER (Homo sapiens, UniProt Q12866).
T2 construct: purchased Invitrogen
T2 sequence (Q12866 21-999): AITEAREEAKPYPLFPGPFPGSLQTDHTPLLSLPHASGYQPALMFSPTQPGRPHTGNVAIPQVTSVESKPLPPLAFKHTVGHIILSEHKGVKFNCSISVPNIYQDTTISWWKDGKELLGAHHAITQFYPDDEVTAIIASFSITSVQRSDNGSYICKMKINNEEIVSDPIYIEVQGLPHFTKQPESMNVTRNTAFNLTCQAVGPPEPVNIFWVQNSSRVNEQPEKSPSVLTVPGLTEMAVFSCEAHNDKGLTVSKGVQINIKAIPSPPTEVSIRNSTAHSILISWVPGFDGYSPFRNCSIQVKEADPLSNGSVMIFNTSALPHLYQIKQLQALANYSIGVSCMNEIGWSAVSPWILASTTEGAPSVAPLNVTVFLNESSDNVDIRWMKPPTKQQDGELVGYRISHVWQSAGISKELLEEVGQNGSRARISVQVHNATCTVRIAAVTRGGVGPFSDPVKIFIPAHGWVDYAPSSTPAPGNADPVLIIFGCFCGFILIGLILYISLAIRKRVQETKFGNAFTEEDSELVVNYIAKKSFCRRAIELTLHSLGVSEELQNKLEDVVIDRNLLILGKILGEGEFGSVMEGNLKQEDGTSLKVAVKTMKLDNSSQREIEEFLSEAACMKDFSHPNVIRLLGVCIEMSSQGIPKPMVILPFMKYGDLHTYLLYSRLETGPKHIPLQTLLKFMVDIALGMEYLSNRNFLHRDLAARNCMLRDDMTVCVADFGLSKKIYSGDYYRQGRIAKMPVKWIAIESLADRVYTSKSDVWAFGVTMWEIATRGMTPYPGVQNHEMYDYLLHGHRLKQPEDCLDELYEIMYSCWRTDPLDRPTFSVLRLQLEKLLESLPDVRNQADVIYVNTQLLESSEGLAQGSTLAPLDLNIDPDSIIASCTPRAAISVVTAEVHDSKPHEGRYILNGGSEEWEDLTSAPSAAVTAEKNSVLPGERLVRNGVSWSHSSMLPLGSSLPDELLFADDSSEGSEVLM
As to the kind of experiment: HTRF KinEASE-TK biochemical potency, MER. The following applies: 1 nM MER, 700 μM ATP. On the procedure: as §1

For the compound `O=C1NCCOc2cc(-c3n[nH]c4ncc(-c5ccc6c(c5)CCC(N5CCCC5)CC6)cc34)ccc21` (racemic) [Example 1, 8-{5-[7-(Pyrrolidin-1-yl)-6,7,8,9-tetrahydro-5H-benzo[7]annulen-2-yl]-1H-pyrazolo[3,4-b]pyridin-3-yl}-2,3,4,5-tetrahydro-1,4-benzoxazepin-5-one], the IC50 on recombinant human TYRO3 and on recombinant human MER was under 100 nM in each case.

As for `O=C1NCCOc2cc(-c3n[nH]c4ncc(-c5ccc6c(c5)CC[C@H](N5CCCC5)CC6)cc34)ccc21` (single isomer, unassigned) [Example 56], the IC50 at recombinant human TYRO3 was under 100 nM; on recombinant human MER, 100 to 1000 nM.

Consider `O=C1NCCOc2cc(-c3n[nH]c4ncc(-c5ccc6c(c5)CC[C@@H](N5CCCC5)CC6)cc34)ccc21` (single isomer, unassigned) [Example 57], for which the IC50 at recombinant human TYRO3 and at recombinant human MER was under 100 nM in each case.

For the compound `O=C1NCCOc2cc(-c3n[nH]c4ncc(-c5ccc6c(c5)CCC(N5CCCC5)C6)cc34)ccc21` (stereo not drawn) [Example 2, 8-{5-[6-(Pyrrolidin-1-yl)-5,6,7,8-tetrahydronaphthalen-2-yl]-1H-pyrazolo[3,4-b]pyridin-3-yl}-2,3,4,5-tetrahydro-1,4-benzoxazepin-5-one], the IC50 at recombinant human TYRO3 and at recombinant human MER was under 100 nM in each case.

With `O=C1NCCOc2cc(-c3n[nH]c4ncc(-c5ccc6c(c5)CC(N5CCCC5)CC6)cc34)ccc21` (stereo not drawn) [Example 3, 8-{5-[7-(Pyrrolidin-1-yl)-5,6,7,8-tetrahydronaphthalen-2-yl]-1H-pyrazolo[3,4-b]pyridin-3-yl}-2,3,4,5-tetrahydro-1,4-benzoxazepin-5-one], the IC50 at recombinant human TYRO3 and at recombinant human MER was under 100 nM each time.

As for `O=C1NCCOc2cc(-c3n[nH]c4ncc(-c5ccc6c(c5)CCC(N[C@H]5CCOC5)C6)cc34)ccc21` (stereo partly drawn) [Example 4, 8-[5-(6-{[(3S)—Oxolan-3-yl]amino}-5,6,7,8-tetrahydronaphthalen-2-yl)-1H-pyrazolo[3,4-b]pyridin-3-yl]-2,3,4,5-tetrahydro-1,4-benzoxazepin-5-one], the IC50 at recombinant human TYRO3 and at recombinant human MER was under 100 nM each time.

Regarding `O=C1NCCOc2cc(-c3n[nH]c4ncc(-c5ccc6c(c5)CCC(N[C@@H]5CCOC5)C6)cc34)ccc21` (stereo partly drawn) [Example 5, 8-[5-(6-{[(3R)—Oxolan-3-yl]amino}-5,6,7,8-tetrahydronaphthalen-2-yl)-1H-pyrazolo[3,4-b]pyridin-3-yl]-2,3,4,5-tetrahydro-1,4-benzoxazepin-5-one], the IC50 at recombinant human TYRO3 and on recombinant human MER was under 100 nM each time.

Regarding `C[C@@H]1CCCN1C1CCc2ccc(-c3cnc4[nH]nc(-c5cc(F)c6c(c5)OCCNC6=O)c4c3)cc2CC1` (stereo partly drawn) [Example 6, 6-Fluoro-8-(5-{7-[(2R)-2-methylpyrrolidin-1-yl]-6,7,8,9-tetrahydro-5H-benzo[7]annulen-2-yl}-1H-pyrazolo[3,4-b]pyridin-3-yl)-2,3,4,5-tetrahydro-1,4-benzoxazepin-5-one], the IC50 at recombinant human TYRO3 and at recombinant human MER was under 100 nM in each case.

As to `O=C1NCCOc2cc(-c3n[nH]c4ncc(-c5ccc6c(c5)CCN(C5CCCC5)CC6)cc34)ccc21` [Example 7, 8-[5-(3-Cyclopentyl-2,3,4,5-tetrahydro-1H-3-benzazepin-7-yl)-1H-pyrazolo[3,4-b]pyridin-3-yl]-2,3,4,5-tetrahydro-1,4-benzoxazepin-5-one], the IC50 on recombinant human TYRO3 and on recombinant human MER was under 100 nM each time.

For the compound `O=C1NCCOc2cc(-c3n[nH]c4ncc(-c5ccc6c(c5)CCN(C5CCCC5)C6)cc34)ccc21` [Example 9, 8-(5-(2-Cyclopentyl-1,2,3,4-tetrahydroisoquinolin-6-yl)-1H-pyrazolo[3,4-b]pyridin-3-yl)-3,4-dihydrobenzo[f][1,4]oxazepin-5(2H)-one], the 50% inhibitory concentration (IC50) at recombinant human TYRO3 and on recombinant human MER was under 100 nM in each case.

Regarding `O=C1NCCOc2cc(-c3n[nH]c4ncc(-c5ccc6c(c5)CN(C5CCCC5)CC6)cc34)ccc21` [Example 10, 8-(5-(2-Cyclopentyl-1,2,3,4-tetrahydroisoquinolin-7-yl)-1H-pyrazolo[3,4-b]pyridin-3-yl)-3,4-dihydrobenzo[f][1,4]oxazepin-5(2H)-one], the IC50 on recombinant human TYRO3 and at recombinant human MER was under 100 nM in each case.

Take `O=C1NCCOc2cc(-c3n[nH]c4ncc(-c5ccc6c(c5)CCN(C5COC5)CC6)cc34)ccc21` [Example 11, 8-(5-(3-(Oxetan-3-yl)-2,3,4,5-tetrahydro-1H-benzo[d]azepin-7-yl)-1H-pyrazolo[3,4-b]pyridin-3-yl)-3,4-dihydrobenzo[f][1,4]oxazepin-5(2H)-one]: the half-maximal inhibitory concentration (IC50) at recombinant human TYRO3 and at recombinant human MER was under 100 nM each time.

For `O=C1NCCOc2cc(-c3n[nH]c4ncc(-c5ccc6c(c5)CCN(C5COC5)C6)cc34)ccc21` [Example 12, 8-(5-(2-(Oxetan-3-yl)-1,2,3,4-tetrahydroisoquinolin-6-yl)-1H-pyrazolo[3,4-b]pyridin-3-yl)-3,4-dihydrobenzo[f][1,4]oxazepin-5(2H)-one], the IC50 on recombinant human TYRO3 is under 100 nM; at recombinant human MER, 100 to 1000 nM.

As to `COCCN1CCc2cc(-c3cnc4[nH]nc(-c5ccc6c(c5)OCCNC6=O)c4c3)ccc2C1` [Example 13, 8-(5-(2-(2-Methoxyethyl)-1,2,3,4-tetrahydroisoquinolin-6-yl)-1H-pyrazolo[3,4-b]pyridin-3-yl)-3,4-dihydrobenzo[f][1,4]oxazepin-5(2H)-one], the values for the half-inhibitory concentration (IC50) at recombinant human TYRO3 and on recombinant human MER were under 100 nM and 100 to 1000 nM, respectively.

As to `COCCN1CCc2ccc(-c3cnc4[nH]nc(-c5ccc6c(c5)OCCNC6=O)c4c3)cc2CC1` [Example 15, 8-(5-(3-(2-Methoxyethyl)-2,3,4,5-tetrahydro-1H-benzo[d]azepin-7-yl)-1H-pyrazolo[3,4-b]pyridin-3-yl)-3,4-dihydrobenzo[f][1,4]oxazepin-5(2H)-one], the IC50 on recombinant human TYRO3 and on recombinant human MER was under 100 nM in each case.

The values are drawn from patent US20240226115A1, “AXL INHIBITOR COMPOUNDS” (ARCUS BIOSCIENCES, INC., priority 2021, published 2024).
